What was measured:
[1] = system: antibodies in sera from SARS patients (sera 1a, 1b, 2, 6, 37, 62, London, SARS-yellow, SARS-green); type: binding, human; design: Binding of serum 6 to linear peptides of protein X1 of SARS-CoV Urbani / Binding of serum 37 to linear peptides of protein X1 of SARS-CoV Urbani / Binding of serum 6 to looped/cyclic peptide (PEPSCAN-ELISA) / Binding of serum 37 to looped/cyclic peptide (PEPSCAN-ELISA) / Binding of serum 37 to looped/cyclic peptides of protein X1 of SARS-CoV Urbani / Binding of serum 6 to linear peptides of protein X2 / Binding of serum 37 to linear peptides of protein X2 / Binding of serum 37 to looped/cyclic peptides of protein X2 of SARS-CoV Urbani / Binding of serum 6 to linear peptides of protein M of SARS-CoV Urbani / Binding of serum 37 to linear peptides of protein M of SARS-CoV Urbani / Binding of serum 6 to looped/cyclic peptides of protein M of SARS-CoV Urbani / Binding of serum 37 to looped/cyclic peptides of protein M of SARS-CoV Urbani / Binding of serum 6 to linear peptides of protein X3 of SARS-CoV Urbani / Binding of serum 37 to linear peptides of protein X3 of SARS-CoV Urbani / Binding of serum 37 to looped/cyclic peptides of protein X3 of SARS-CoV Urbani / Binding of serum 6 to linear peptides of protein X4 of SARS-CoV Urbani / Binding of serum 37 to linear peptides of protein X4 of SARS-CoV Urbani / Binding of serum 37 to looped/cyclic peptides of protein X4 of SARS-CoV Urbani / Binding of serum 6 to linear peptides of protein X5 of SARS-CoV Urbani / Binding of serum 37 to linear peptides of protein X5 of SARS-CoV Urbani / Binding of serum 37 to looped/cyclic peptides of protein X5 of SARS-CoV Urbani / Binding of serum 6 to linear peptides of protein N of SARS-CoV Urbani / Binding of serum 37 to linear peptides of protein N of SARS-CoV Urbani / Binding of serum 6 to linear peptide (PEPSCAN-ELISA) / Binding of serum 1a to looped/cyclic peptides of protein N of SARS-CoV Urbani / Binding of serum 1b to looped/cyclic peptides of protein N of SARS-CoV Urbani / Binding of serum 2 to looped/cyclic peptides of protein N of SARS-CoV Urbani / Binding of serum 6 to looped/cyclic peptides of protein N of SARS-CoV Urbani / Binding of serum 37 to looped/cyclic peptides of protein N of SARS-CoV Urbani / Binding of serum 62 to looped/cyclic peptides of protein N of SARS-CoV Urbani / Binding of serum London to looped/cyclic peptides of protein N of SARS-CoV Urbani / Binding of serum SARS-green to looped/cyclic peptides of protein N of SARS-CoV Urbani: unit not given here
[2] = system: control sera (pooled serum of ten healthy LUMC hospital workers; commercial negative donor pooled serum from the Dutch bloodbank); type: binding, human; design: Binding of Control serum LUMC to linear peptides / Binding of Control serum Blood-bank to linear peptides / Binding of Control serum LUMC to looped peptides / Binding of Control Serum Blood-Bank to Looped peptides / Binding of Control serum LUMC to linear peptides of the protein M of SARS-CoV Urbani / Binding of Control serum Blood-bank to linear peptides of the protein M of SARS-CoV Urbani / Binding of Control serum LUMC to looped peptides of the protein M of SARS-CoV Urbani / Binding of Control Serum Blood-Bank to Looped peptides of the protein M of SARS-CoV Urbani: unit not given here
[3] = system: rabbit serum obtained by immunizing a rabbit with the SARS-CoV strain Frankfurt 1; type: binding; design: Binding of a rabbit serum to linear peptides / Binding of a rabbit serum to looped peptides / Rabbit serum linear peptides / Rabbit serum looped peptides / Binding of a rabbit serum to linear peptides of protein N of SARS-CoV Urbani (Rabbit serum linear peptides) / Binding of a rabbit serum to looped/cyclic peptides of protein N of SARS-CoV Urbani (Rabbit serum looped peptides): unit not given here

## RSMWSFNPETNILLN
[1]
  Binding of serum 1a to linear peptides of protein M of SARS-CoV Urbani: 0.8
  Binding of serum 1a to looped/cyclic peptides of protein M of SARS-CoV Urbani: 0.8
  Binding of serum 1b to linear peptides of protein M of SARS-CoV Urbani: 0.6
  Binding of serum 1b to looped/cyclic peptides of protein M of SARS-CoV Urbani: 0.4
  Binding of serum 2 to linear peptides of protein M of SARS-CoV Urbani: 0.6
  Binding of serum 2 to looped/cyclic peptides of protein M of SARS-CoV Urbani: 0.8
  Binding of serum 6 to linear peptides of protein M of SARS-CoV Urbani: 0.3
  Binding of serum 6 to looped/cyclic peptides of protein M of SARS-CoV Urbani: 0.7
  Binding of serum 37 to linear peptides of protein M of SARS-CoV Urbani: 0.8
  Binding of serum 37 to looped/cyclic peptides of protein M of SARS-CoV Urbani: 0.8
  Binding of serum 62 to linear peptides of protein M of SARS-CoV Urbani: 0.7
  Binding of serum 62 to looped/cyclic peptides of protein M of SARS-CoV Urbani: 0.8
  Binding of serum London to linear peptides of protein M of SARS-CoV Urbani: 0.3
  Binding of serum London to looped/cyclic peptides of protein M of SARS-CoV Urbani: 0.2
  Binding of serum SARS-green to linear peptides of protein M of SARS-CoV Urbani: 0.2
  Binding of serum SARS-green to looped/cyclic peptides of protein M of SARS-CoV Urbani: 0.4
  Binding of serum SARS-yellow to linear peptides of protein M of SARS-CoV Urbani: 0.1
  Binding of serum SARS-yellow to looped/cyclic peptides of protein M of SARS-CoV Urbani: 0.7
[2]
  Binding of Control Serum Blood-Bank to Looped peptides of the protein M of SARS-CoV Urbani: 0.7
  Binding of Control serum Blood-bank to linear peptides of the protein M of SARS-CoV Urbani: 0.8
  Binding of Control serum LUMC to linear peptides of the protein M of SARS-CoV Urbani: 0.5
  Binding of Control serum LUMC to looped peptides of the protein M of SARS-CoV Urbani: 0.7
[3]
  Rabbit serum linear peptides: 0.4
  Rabbit serum looped peptides: 0.3

## RSVSPKLFIRQEEVQ
[1]
  Binding of serum 1a to linear peptides of protein X4 of SARS-CoV Urbani: 0.7
  Binding of serum 1a to looped/cyclic peptides of protein X4 of SARS-CoV Urbani: 0.6
  Binding of serum 1b to linear peptides of protein X4 of SARS-CoV Urbani: 0.4
  Binding of serum 1b to looped/cyclic peptides of protein X4 of SARS-CoV Urbani: 0.5
  Binding of serum 2 to linear peptides of protein X4 of SARS-CoV Urbani: 0.4
  Binding of serum 2 to looped/cyclic peptides of protein X4 of SARS-CoV Urbani: 0.5
  Binding of serum 6 to linear peptides of protein X4 of SARS-CoV Urbani: 0.5
  Binding of serum 6 to looped/cyclic peptides of protein X4 of SARS-CoV Urbani: 0.5
  Binding of serum 37 to linear peptides of protein X4 of SARS-CoV Urbani: 0.6
  Binding of serum 37 to looped/cyclic peptides of protein X4 of SARS-CoV Urbani: 0.7
  Binding of serum 62 to linear peptides of protein X4 of SARS-CoV Urbani: 0.7
  Binding of serum 62 to looped/cyclic peptides of protein X4 of SARS-CoV Urbani: 0.6
  Binding of serum London to linear peptides of protein X4 of SARS-CoV Urbani: 0.6
  Binding of serum London to looped/cyclic peptides of protein X4 of SARS-CoV Urbani: 0.3
  Binding of serum SARS-green to linear peptides of protein X4 of SARS-CoV Urbani: 0.5
  Binding of serum SARS-green to looped/cyclic peptides of protein X4 of SARS-CoV Urbani: 0.4
  Binding of serum SARS-yellow to linear peptides of protein X4 of SARS-CoV Urbani: 0.2
  Binding of serum SARS-yellow to looped/cyclic peptides of protein X4 of SARS-CoV Urbani: 0.5
[2]
  Binding of Control Serum Blood-Bank to Looped peptides: 0.6
  Binding of Control serum Blood-bank to linear peptides: 0.5
  Binding of Control serum LUMC to linear peptides: 0.4
  Binding of Control serum LUMC to looped peptides: 0.7
[3]
  Rabbit serum linear peptides: 0.4
  Rabbit serum looped peptides: 0.4

## RTRSMWSFNPETNIL
[1]
  Binding of serum 1a to linear peptides of protein M of SARS-CoV Urbani: 0.9
  Binding of serum 1a to looped/cyclic peptides of protein M of SARS-CoV Urbani: 0.7
  Binding of serum 1b to linear peptides of protein M of SARS-CoV Urbani: 0.8
  Binding of serum 1b to looped/cyclic peptides of protein M of SARS-CoV Urbani: 0.3
  Binding of serum 2 to linear peptides of protein M of SARS-CoV Urbani: 0.8
  Binding of serum 2 to looped/cyclic peptides of protein M of SARS-CoV Urbani: 0.8
  Binding of serum 6 to linear peptides of protein M of SARS-CoV Urbani: 0.4
  Binding of serum 6 to looped/cyclic peptides of protein M of SARS-CoV Urbani: 0.7
  Binding of serum 37 to linear peptides of protein M of SARS-CoV Urbani: 0.9
  Binding of serum 37 to looped/cyclic peptides of protein M of SARS-CoV Urbani: 0.9
  Binding of serum 62 to linear peptides of protein M of SARS-CoV Urbani: 0.9
  Binding of serum 62 to looped/cyclic peptides of protein M of SARS-CoV Urbani: 0.9
  Binding of serum London to linear peptides of protein M of SARS-CoV Urbani: 0.3
  Binding of serum London to looped/cyclic peptides of protein M of SARS-CoV Urbani: 0.2
  Binding of serum SARS-green to linear peptides of protein M of SARS-CoV Urbani: 0.3
  Binding of serum SARS-green to looped/cyclic peptides of protein M of SARS-CoV Urbani: 0.0
  Binding of serum SARS-yellow to linear peptides of protein M of SARS-CoV Urbani: 0.1
  Binding of serum SARS-yellow to looped/cyclic peptides of protein M of SARS-CoV Urbani: 0.7
[2]
  Binding of Control Serum Blood-Bank to Looped peptides of the protein M of SARS-CoV Urbani: 0.7
  Binding of Control serum Blood-bank to linear peptides of the protein M of SARS-CoV Urbani: 0.9
  Binding of Control serum LUMC to linear peptides of the protein M of SARS-CoV Urbani: 0.7
  Binding of Control serum LUMC to looped peptides of the protein M of SARS-CoV Urbani: 0.7
[3]
  Rabbit serum linear peptides: 0.6
  Rabbit serum looped peptides: 0.4

## RVGTDSGFAAYNRYR
[1]
  Binding of serum 1a to linear peptides of protein M of SARS-CoV Urbani: 0.7
  Binding of serum 1a to looped/cyclic peptides of protein M of SARS-CoV Urbani: 0.8
  Binding of serum 1b to linear peptides of protein M of SARS-CoV Urbani: 0.1
  Binding of serum 1b to looped/cyclic peptides of protein M of SARS-CoV Urbani: 0.5
  Binding of serum 2 to linear peptides of protein M of SARS-CoV Urbani: 0.5
  Binding of serum 2 to looped/cyclic peptides of protein M of SARS-CoV Urbani: 0.6
  Binding of serum 6 to linear peptides of protein M of SARS-CoV Urbani: 0.5
  Binding of serum 6 to looped/cyclic peptides of protein M of SARS-CoV Urbani: 1.4
  Binding of serum 37 to linear peptides of protein M of SARS-CoV Urbani: 0.6
  Binding of serum 37 to looped/cyclic peptides of protein M of SARS-CoV Urbani: 0.7
  Binding of serum 62 to linear peptides of protein M of SARS-CoV Urbani: 0.2
  Binding of serum 62 to looped/cyclic peptides of protein M of SARS-CoV Urbani: 0.6
  Binding of serum London to linear peptides of protein M of SARS-CoV Urbani: 0.3
  Binding of serum London to looped/cyclic peptides of protein M of SARS-CoV Urbani: 0.4
  Binding of serum SARS-green to linear peptides of protein M of SARS-CoV Urbani: 0.5
  Binding of serum SARS-green to looped/cyclic peptides of protein M of SARS-CoV Urbani: 0.3
  Binding of serum SARS-yellow to linear peptides of protein M of SARS-CoV Urbani: 0.3
  Binding of serum SARS-yellow to looped/cyclic peptides of protein M of SARS-CoV Urbani: 0.5
[2]
  Binding of Control Serum Blood-Bank to Looped peptides of the protein M of SARS-CoV Urbani: 0.5
  Binding of Control serum Blood-bank to linear peptides of the protein M of SARS-CoV Urbani: 0.7
  Binding of Control serum LUMC to linear peptides of the protein M of SARS-CoV Urbani: 0.4
  Binding of Control serum LUMC to looped peptides of the protein M of SARS-CoV Urbani: 0.6
[3]
  Rabbit serum linear peptides: 0.0
  Rabbit serum looped peptides: 0.3
